Source: patent US20170258924A1, “Ester of a Phospholipid With Conjugated Linoleic Acid for the Treatment of Psychiatric Disorders With Neuroinflammatory and Neurodegenerative Basis” (UNIVERSITA' DEGLI STUDI DI CAGLIARI, priority 2014, published 2017)

Experiments:
[1] = system: rat brain slices; assay: ex vivo incubation of rat brain slices, levels of PEA and OEA; format: cell-based; details: rat brain slices incubated ex vivo for 15, 30 or 60 min; FIG. 1
From the text: The values, mean and DS, are expressed as molar % of the total fatty acids. Different letters indicate significant differences (p<0.05); the One-way ANOVA statistical analysis was used, with Tukey test for post-hoc analysis. Similar results were obtained by using pure (99%) c9,t11 isomer.
(§1) The methods employed for the analysis of the levels of conjugated linoleic acid, PEA and OEA in vivo and in vitro are described in detail in (Melis et al. 2001) and in (Piscitelli et al. 2011), respectively.
On the contrary, WY14643 (WY), a synthetic agonist of PPAR alpha used as a comparison since it is an inductor of PPAR alpha, increases the levels of PEA and OEA by about 3-4 times (FIG. 1B).

[2] = system: frontal cortex of mice; assay: in vivo administration to mice, levels of OEA in the frontal cortex; details: acute administration 12 hours prior to sacrifice, FIG. 2
From the text: The values, mean and DS, are expressed as pmoles/g tissue. Different letters indicate significant differences (p<0.05); the One-way ANOVA statistical analysis was used, with Tukey test for post-hoc analysis.
as §1
(§2) Since astrocytes are involved in neuroinflammation, the action of CLA (80% c9,t11 isomer) was also verified in cultures of astrocytes after having induced neuroinflammation with LPS. Oleic acid was used as a control.

[3] = system: TNF alpha in astrocytes; assay: TNF alpha in cultures of astrocytes after induced neuroinflammation with LPS; format: cell-based; details: treatment then LPS, oleic acid as control, p<0.05, FIG. 3
From the text: as §2

[4] = system: TNF alpha in microglia; assay: TNF alpha in microglia in vitro; format: cell-based
From the text: The PEA and OEA increase, since it sustains PPAR alpha activation, is crucial for the physiologic response to neuroinflammatory events, in addition to preserving the homeostasis of the dopaminergic system. In fact, CLA can reduce in vitro the levels of TNF alpha in both astrocytes and microglia.

Compound: Cc1cccc(Nc2cc(Cl)nc(SCC(=O)O)n2)c1C [WY14643, reference compound]
- increase of the levels of OEA [1]: 3-4 times
- increase of the levels of PEA [1]: 3-4 times

Compound: conjugated linoleic acid [CLA (80% c9,t11 isomer)]
- increase of the levels of OEA [1]: about 5 times
- increase of the levels of PEA [1]: about 5 times
- levels of OEA in the frontal cortex [2]: significantly increases
- TNF alpha in cultured astrocytes [3]: significant decrease
- TNF alpha in cultured astrocytes ([3]; listed as CLA): reduce
- levels of TNF alpha in microglia [4]: reduce
